From US7407775B2, “Method for identifying Listeria monocytogenes and culture medium” (Biomerieux S.A., priority 2000, dated 2008)

What was measured:
Type in all cases: cell-based
[1] = tested on: Listeria monocytogenes, Listeria innocua and Listeria ivanovii; assay: Experiment 4: comparison of Listeria strains with pairs of substrates; conditions: for results as saccharidase substrate paired with an esterase substrate: Experiment 4, semi-solid medium
Procedure: (§1) In Table 1 above, as in the following Tables, C represents the color of the colonies after incubation, I represents the intensity of the color, and the symbol “-” corresponds to the absence of color or intensity; finally, IT defines the incubation time. It should be noted that the intensity of the color is scored on an arbitrary scale but one which is consistent for all the biological specimens and media tested. This scale is valid for this experiment as well as all those that follow. It can be defined in the following way: • 0 corresponds to no activity, • 0.1 corresponds to a trace of color, • 0.5 corresponds to very pale coloration, • 1 corresponds to clear but low-intensity coloration, • 1.5 corresponds to a degree of coloration intermediate between scores 1 and 2, • 2 corresponds to clear coloration of moderate intensity, • 2.5 corresponds to a degree of coloration intermediate between scores 2 and 3, • 3 corresponds to intense coloration, • 3.5 corresponds to a degree of coloration intermediate between scores 3 and 4, • 4 corresponds to very intense coloration.
A stock solution of each esterase substrate at a concentration of 40 g/l was made up in a mixture of 40% Dimethylsulfoxide and 60% Tween 20. And a stock solution of each saccharidase substrate was made up in Dimethylsulfoxide. An appropriate volume of the stock solution of the esterase substrate corresponding to each of the pairs described above was added to one of eight Columbia-type media while cooling to obtain a final substrate concentration of 250 mg/l. In parallel, an appropriate volume of the stock solution of the saccharidase substrate corresponding to each of the pairs described above was added to each of the eight media in order to obtain a final concentration of between 100 and 200 mg/l (depending on the substrate). These dishes were divided into three areas and then each area was inoculated with a suspension (density=0.5 McFarland) of microorganisms taken from either the Applicant's own collection or the ATCC. The dishes were incubated for 48 hours at 37° C. The colonies which grew were examined by eye after 24 and 48 hours of incubation.
Both the color and the intensity of the color of the colonies were recorded.

[2] = tested on: Listeria grayi ATCC 19120; assay: Experiment 3: detecting an esterase activity in liquid medium (API-type strips); design: key: —: the symbol “-” corresponds to the absence of color or intensity; 0 corresponds to no activity; 0.1 corresponds to a trace of color; 0.5 corresponds to very pale coloration; 1 corresponds to clear but low-intensity coloration; 1.5 corresponds to a degree of coloration intermediate between scores 1 and 2; 2 corresponds to clear coloration of moderate intensity; 2.5 corresponds to a degree of coloration intermediate between scores 2 and 3; 3 corresponds to intense coloration; 3.5 corresponds to a degree of coloration intermediate between scores 3 and 4; 4 corresponds to very intense coloration; conditions: 37° C.
Procedure: as §1
(§2) These substrates were lyophilized in the wells of API-type strips (Registered Trademark). Before use, the substrates contained in the wells were resuspended in an agar-free Columbia-type inoculation medium. These wells were then inoculated with a suspension (density=2 McFarland) of microorganisms taken from either the Applicant's own collection or the ATCC. The strips were incubated for 8 hours at 37° C. The colonies which grew were examined by eye after 4, 6 and 8 hours of incubation.
(§3) The intensity of the color of the colonies was recorded.

Listeria innocua 166 = assay: as above; design: key: —: the symbol “-” corresponds to the absence of color or intensity; 0 corresponds to no activity; 0.1 corresponds to a trace of color; 0.5 corresponds to very pale coloration; 1 corresponds to clear but low-intensity coloration; 1.5 corresponds to a degree of coloration intermediate between scores 1 and 2; 2 corresponds to clear coloration of moderate intensity; 2.5 corresponds to a degree of coloration intermediate between scores 2 and 3; 3 corresponds to intense coloration; 3.5 corresponds to a degree of coloration intermediate between scores 3 and 4; 4 corresponds to very intense coloration; conditions: 37° C.
Procedure: as §1, §2, §3

Listeria innocua 171 = assay: as above; design: key: —: the symbol “-” corresponds to the absence of color or intensity; 0 corresponds to no activity; 0.1 corresponds to a trace of color; 0.5 corresponds to very pale coloration; 1 corresponds to clear but low-intensity coloration; 1.5 corresponds to a degree of coloration intermediate between scores 1 and 2; 2 corresponds to clear coloration of moderate intensity; 2.5 corresponds to a degree of coloration intermediate between scores 2 and 3; 3 corresponds to intense coloration; 3.5 corresponds to a degree of coloration intermediate between scores 3 and 4; 4 corresponds to very intense coloration; conditions: 37° C.
Procedure: as §1, §2, §3

Listeria ivanovii 018 = assay: as above; design: key: —: the symbol “-” corresponds to the absence of color or intensity; 0 corresponds to no activity; 0.1 corresponds to a trace of color; 0.5 corresponds to very pale coloration; 1 corresponds to clear but low-intensity coloration; 1.5 corresponds to a degree of coloration intermediate between scores 1 and 2; 2 corresponds to clear coloration of moderate intensity; 2.5 corresponds to a degree of coloration intermediate between scores 2 and 3; 3 corresponds to intense coloration; 3.5 corresponds to a degree of coloration intermediate between scores 3 and 4; 4 corresponds to very intense coloration; conditions: 37° C.
Procedure: as §1, §2, §3

[3] = tested on: Listeria monocytogenes 092; assay: as above; design: key: —: the symbol “-” corresponds to the absence of color or intensity; 0 corresponds to no activity; 0.1 corresponds to a trace of color; 0.5 corresponds to very pale coloration; 1 corresponds to clear but low-intensity coloration; 1.5 corresponds to a degree of coloration intermediate between scores 1 and 2; 2 corresponds to clear coloration of moderate intensity; 2.5 corresponds to a degree of coloration intermediate between scores 2 and 3; 3 corresponds to intense coloration; 3.5 corresponds to a degree of coloration intermediate between scores 3 and 4; 4 corresponds to very intense coloration; conditions: 37° C.
Procedure: as §1, §2, §3

[4] = tested on: Listeria monocytogenes ATCC 19115; assay: as above; design: key: —: the symbol “-” corresponds to the absence of color or intensity; 0 corresponds to no activity; 0.1 corresponds to a trace of color; 0.5 corresponds to very pale coloration; 1 corresponds to clear but low-intensity coloration; 1.5 corresponds to a degree of coloration intermediate between scores 1 and 2; 2 corresponds to clear coloration of moderate intensity; 2.5 corresponds to a degree of coloration intermediate between scores 2 and 3; 3 corresponds to intense coloration; 3.5 corresponds to a degree of coloration intermediate between scores 3 and 4; 4 corresponds to very intense coloration; conditions: 37° C.
Procedure: as §1, §2, §3

Listeria seeligeri 011 = assay: as above; design: key: —: the symbol “-” corresponds to the absence of color or intensity; 0 corresponds to no activity; 0.1 corresponds to a trace of color; 0.5 corresponds to very pale coloration; 1 corresponds to clear but low-intensity coloration; 1.5 corresponds to a degree of coloration intermediate between scores 1 and 2; 2 corresponds to clear coloration of moderate intensity; 2.5 corresponds to a degree of coloration intermediate between scores 2 and 3; 3 corresponds to intense coloration; 3.5 corresponds to a degree of coloration intermediate between scores 3 and 4; 4 corresponds to very intense coloration; conditions: 37° C.
Procedure: as §1, §2, §3

Listeria welshimeri 023 = assay: as above; design: key: —: the symbol “-” corresponds to the absence of color or intensity; 0 corresponds to no activity; 0.1 corresponds to a trace of color; 0.5 corresponds to very pale coloration; 1 corresponds to clear but low-intensity coloration; 1.5 corresponds to a degree of coloration intermediate between scores 1 and 2; 2 corresponds to clear coloration of moderate intensity; 2.5 corresponds to a degree of coloration intermediate between scores 2 and 3; 3 corresponds to intense coloration; 3.5 corresponds to a degree of coloration intermediate between scores 3 and 4; 4 corresponds to very intense coloration; conditions: 37° C.
Procedure: as §1, §2, §3

Listeria species = assay: Experiment 3: differentiation of Listeria species in liquid medium
Procedure: as §1
These substrates were lyophilized in the wells of API-type strips (Registered Trademark). Before use, the substrates contained in the wells were resuspended in an agar-free Columbia-type inoculation medium. […]
as §3

| SMILES | results as saccharidase substrate paired with an esterase substrate [1] | I (intensity of the color) ([2]; IT 4 h) | I (intensity of the color) ([2]; IT 6 h) | I (intensity of the color) ([2]; IT 8 h) | I (intensity of the color) (Listeria innocua 166; IT 4 h) | I (intensity of the color) (Listeria innocua 166; IT 6 h) | I (intensity of the color) (Listeria innocua 166; IT 8 h) | I (intensity of the color) (Listeria innocua 171; IT 4 h) | I (intensity of the color) (Listeria innocua 171; IT 6 h) | I (intensity of the color) (Listeria innocua 171; IT 8 h) | I (intensity of the color) (Listeria ivanovii 018; IT 4 h) | I (intensity of the color) (Listeria ivanovii 018; IT 6 h) | I (intensity of the color) (Listeria ivanovii 018; IT 8 h) | I (intensity of the color) ([3]; IT 4 h) | I (intensity of the color) ([3]; IT 6 h) | I (intensity of the color) ([3]; IT 8 h) | I (intensity of the color) ([4]; IT 4 h) | I (intensity of the color) ([4]; IT 6 h) | I (intensity of the color) ([4]; IT 8 h) | I (intensity of the color) (Listeria seeligeri 011; IT 4 h) | further results |
| --- | --- | --- | --- | --- | --- | --- | --- | --- | --- | --- | --- | --- | --- | --- | --- | --- | --- | --- | --- | --- | --- |
| CCCCCCCCC(=O)Oc1c[nH]c2ccc(Br)c(Cl)c12 [5-Bromo-4-chloro-3-indolyl nonanoate] | – | – | – | – | – | – | – | – | – | – | – | – | – | – | – | – | – | – | – | – | contrast ([1]; together with a saccharidase substrate based on 6-Chloro-3-indolyl, whatever the target activity): best contrast |
| CC(=O)N[C@H]1[C@H](Oc2c[nH]c3cc(Cl)ccc23)O[C@H](CO)[C@@H](O)[C@@H]1O [6-Chloro-3-indolyl-N-acetyl-β-D-glucosaminide] | best results | – | – | – | – | – | – | – | – | – | – | – | – | – | – | – | – | – | – | – | – |
| OC[C@H]1O[C@H](Oc2c[nH]c3cc(Cl)ccc23)[C@@H](O)[C@@H](O)[C@@H]1O [6-Chloro-3-indolyl-α-D-mannoside] | best results | – | – | – | – | – | – | – | – | – | – | – | – | – | – | – | – | – | – | – | – |
| OC[C@H]1O[C@@H](Oc2c[nH]c3cc(Cl)ccc23)[C@H](O)[C@@H](O)[C@@H]1O [6-Chloro-3-indolyl-β-D-glucoside] | best results | – | – | – | – | – | – | – | – | – | – | – | – | – | – | – | – | – | – | – | – |
| CC(=O)Oc1c[nH]c2ccc(Br)c(Cl)c12 [X-C2, 5-Bromo-4-chloro-3-indolyl acetate] | – | 2 | 2 | 3 | 3 | 4 | 4 | 4 | 4 | 4 | 3 | 3 | 4 | 3 | 4 | 4 | 3 | 4 | 4 | 3 | I (intensity of the color) (Listeria seeligeri 011; IT 6 h): 3; I (intensity of the color) (Listeria seeligeri 011; IT 8 h): 4; I (intensity of the color) (Listeria welshimeri 023; IT 4 h): 3; I (intensity of the color) (Listeria welshimeri 023; IT 6 h): 4; I (intensity of the color) (Listeria welshimeri 023; IT 8 h): 4 |
| CCCC(=O)Oc1c[nH]c2ccc(Br)c(Cl)c12 [X-C4, 5-Bromo-4-chloro-3-indolyl butyrate] | – | 0.5 | 1 | 2 | 0.5 | 1 | 2 | 0.5 | 1 | 2 | 0.5 | 1 | 2 | 2 | 2 | 3 | 1 | 2 | 3 | 0.5 | I (intensity of the color) (Listeria seeligeri 011; IT 6 h): 1; I (intensity of the color) (Listeria seeligeri 011; IT 8 h): 2; I (intensity of the color) (Listeria welshimeri 023; IT 4 h): 0.5; I (intensity of the color) (Listeria welshimeri 023; IT 6 h): 1; I (intensity of the color) (Listeria welshimeri 023; IT 8 h): 2; differentiation between L. monocytogenes and other species belonging to the same genus (Listeria species): gave a contrast in color |
| CC(=O)Oc1c[nH]c2ccccc12 [Y-C2, 3-Indolyl acetate] | – | 3 | 4 | 4 | 3 | 3 | 4 | 3 | 3 | 4 | 3 | 4 | 4 | 4 | 4 | 4 | 3 | 4 | 4 | 3 | I (intensity of the color) (Listeria seeligeri 011; IT 6 h): 3; I (intensity of the color) (Listeria seeligeri 011; IT 8 h): 4; I (intensity of the color) (Listeria welshimeri 023; IT 4 h): 3; I (intensity of the color) (Listeria welshimeri 023; IT 6 h): 4; I (intensity of the color) (Listeria welshimeri 023; IT 8 h): 4 |
